Counter-ions that a name gives are not always drawn. Like-named read-outs stand apart in the source and are kept apart here. Marks after values point to notes of the source that are not given here.

The test system of data set [1] is WiDr cells. As to conditions: MTS assay; for Dark toxicity (cell toxicity in the absence of light): 0.001-1 mM, 4 hours incubation in the dark. As to the method: Stock solutions of the compounds above were prepared by dissolving them in DMSO to a concentration of 100 mM. Concentrations used in the experiments were obtained by diluting the stock solutions with PBS or cell culture medium.
WiDr cells derived from a primary adenocarcinoma of the rectosigmoid colon were subcultured in RPMI 1640 medium (Gibco) containing 10% fetal calf serum, 100 U/ml penicillin, 100 μg/ml streptomycin and 1% glutamine. Cells were split 1:100 twice a week, and maintained at 37° C. and 5% CO2 in a humid environment. For carrying out the experiments, 5×10^5 WiDr cells in 2 ml of the medium described above were added to each well of 6-well plastic tissue-culture plates (Nunc) and left for 48 hr at 37° C. and 5% CO2 in a humid environment for proper attachment to the substrate. The cells were then washed twice with RPMI 1640-medium without serum, followed by the addition to the wells of the appropriate dilutions of the compounds and references above in 2 ml of fresh culture medium to final concentrations of 0.001, 0.003, 0.01, 0.03, 0.1, 0.3 and 1 mM in duplicates. To two wells, only 2 ml of fresh culture medium was added. These untreated cells served as a control. The cells were incubated at 37° C. for four hours in the dark.
Dark toxicity, i.e. cell toxicity in the absence of light, was measured by MTS assay immediately after the above-described 4 hours of incubation with the compounds and references at various concentrations.

Data set [2] concerns WiDr cells. Kind of data set: In vitro PpIX formation in cancer cells. Type of data set: cell-based. The procedure: These untreated cells served as a control.
After treatment with the compounds of the invention and reference compounds as described above, the cells were washed twice with PBS and scraped off the substrate with a Costar cell scraper into a solution of 1M HClO4 in 50% methanol. Cell debris was removed by centrifugation. PpIX was quantitatively extracted from the cells with this procedure. The PpIX content in each sample was determined fluorometrically using a Perkin Elmer LS50B spectrofluorimeter. PpIX was excited at 407 nm, and the emitted fluorescence was measured at 606 nm using a long pass cut-off filter (530 nm) on the emission side. A standard of known PpIX concentration was added to the samples at concentrations increasing the total fluorescence by 50-100%. The PpIX concentration in each sample was calculated relative to the protein content in control cells as measured by a bicinchoninic acid protein assay.

The test system of data set [3] is Rat bladder cells (AY-27). The experiment in a line: PpIX measurements in rat bladder cells. It counts as cell-based. Particulars: AY-27 cells, 2 hours incubation. As to the method:
Rat bladder cells (AY-27) were grown in the culture medium (RPMI 1640 supplemented with 9% fetal calf serum 1% L-glutamin (200 mM) and 1% penicillin (10 000 UI), streptomycin (10 000 μg·mL^−1). Exponentially growing cells (AY-27) were incubated for 2 hours with freshly prepared solutions of 0.8 mM HAL (which is a tenth of the concentration which is used for bladder cancer […]). Control cells received serum-free medium without any test or reference compounds. After the incubation, the solutions or the medium was discarded and the cells were rinsed 2 times with ice-cooled PBS. PpIX was extracted from cells using an ice-cold lysis extraction mixture, consisting of ethanol/DMSO/acetic acid (80/20/1, v/v/v). The cell lysate was centrifuged (400 g, 10 min, 2° C.), the pellet was grinded and the suspension was sonicated for 15 min before being centrifuged. The fluorescence signal of PpIX was measured with a Perkin-Elmer LS 55 spectrometer (Perkin-Elmer, Beaconsfield, UK) and expressed as a function of the protein content. The fluorescence intensity at 635 nm in each sample was reported on a calibration curve established with PpIX (Sigma-Aldrich, France) diluted in extraction mixture as described above. The PpIX concentration was expressed relative to the protein content. Briefly, a lysis buffer mixture (1 mM EDTA, 1% Triton X-100 and 10 mM Tris-HCl; pH 7.4) was added to frozen cell dishes together with 500 mM PMSF (anti-protease) solution in DMSO. Lysates were kept on ice for 30 minutes and centrifuged at 4° C. for 20 minutes at 15 000 g. The protein content was then measured against a BSA calibration curve by a Biorad DC protein assay kit (Bio-Rad, France) based on a method developed by Lowry.

The test system of data set [4] is UV-damaged mouse skin versus healthy mouse skin. The experiment in a line: In vivo skin fluorescence in healthy nude mice and nude mice with UV-damaged skin. Particulars: nude mice. As to the method:
An experiment was carried out to assess the potential for compound 6 to show selective accumulation in UV-damaged skin. For the assessment, skin fluorescence after application of the compound was measured in vivo in healthy mouse skin and in UV-damaged mouse skin. A nude mice model with UV-damaged skin (actinic damage) was established as described by K. Togsverd-Bo et al., Exp. Dermatol. 2012, 21, 260-264.
Equimolar amounts of compound 2 (1-(isopropyl carboxy)ethyl 5-amino-4-oxopentanoate hydrochloride prepared according to Example 2) and compound 5 (3-carboxypropyl 5 amino-4-oxopentanoate hydrochloride prepared according to Example 5) were formulated as a cream in Unguentum Merck: compound 2: 16%, 160 mg/g and compound 5: 14%, 140 mg/g, respectively.
One group of healthy nude mice (10 mice, control group) and one group of nude mice with UV-damaged skin (10 mice) were included in the experiment. About 125 μl of cream formulation was applied onto the back of each mouse. Prior to cream application, the dorsal skin of each mouse was tape-stripped five times to enhance penetration of the compound: adhesive film (Scotch tape, 3M) was pressed onto the skin of the application area, the tape strip was removed with one quick movement and a new tape strip was used. The mice were kept in the dark for 3 hours prior to skin fluorescence measurement to avoid photobleaching. Skin fluorescence was assessed as described in Example 17 and the mean amount of skin fluorescence for each group of mice was calculated.
The ratio of skin fluorescence [a.u] in UV-damaged mouse skin to skin fluorescence [a.u.] in healthy mouse skin was determined.

Data set [5] has as its system Rat bladder cells (AY-27). The experiment in a line: Cytotoxicity in rat bladder cells (MTT test). Type of data set: cell-based. Particulars: AY-27 cells; for Cytotoxicity: 2 hours, MTT test; for Levels of cytotoxicity compared to HAL: compound at 1 mM. As to the method: All experiments were performed in 4-5 replicates under subdued light. For concentrations of compounds 1 mM, the cytotoxicity was assessed with MTT test. Exponentially growing cells were incubated with freshly prepared solution or medium as described above for 2 hours in 96-well plates. After the incubation, the solutions or the medium was discarded and the cells were washed twice with PBS. Then 50 μl of MTT (2.5 mg·ml^−1) was added to 150 μl of RPMI serum-free medium per well and incubated for 3 hours. Absorbance was measured by dissolving formazan crystals with 50 μl of DMSO. The absorbance was normalized to that of control cells.

[6] abbreviates: WiDr cells, 0.001-1 mM, 4 hours incubation, * mean of two, ** mean of 3 experiments.

With `Cl.NCC(=O)CCC(=O)O` [ALA, 5-ALA hydrochloride, reference compound], the “Dark toxicity (cell toxicity in the absence of light)” value in the data set with WiDr cells [1] is “no cell toxicity was observed”. In the data set with WiDr cells [2] (setting [6]), the “Max. PpIX content” value was 80* ng/mg protein. Besides, in the data set on WiDr cells [2] (WiDr cells, 4 hours incubation), the “Compound concentration for max PpIX formation” value (shortened to “Compound concentration”) is on record as “≧1 mM”.
In the case of `NCC(=O)CCC(=O)OCCCC(=O)O` [Compound 5, 3-carboxypropyl 5-amino-4-oxopentanoate hydrochloride], the “PpIX Mean ± SD” value is given as 221 ± 32 pmoles/mg protein in data set [3] (0.3 mM); 224 ± 35 pmoles/mg protein in data set [3] (0.5 mM); 261 ± 52 pmoles/mg protein in data set [3] (1 mM); 250 ± 83 pmoles/mg protein in data set [3] (5 mM); 216 ± 11 pmoles/mg protein in data set [3] (15 mM). Also, the “Dark toxicity (cell toxicity in the absence of light)” value with WiDr cells [1] is “no cell toxicity was observed”. Besides, in data set [4] (equimolar creams (16% / 14%), about 125 μl, tape-stripped skin, 3 hours in the dark, 10 mice per group), the “Ratio of skin fluorescence in UV-damaged mouse skin to skin fluorescence in healthy mouse skin” value amounted to 2.72. In addition, the “Selectivity for UV-damaged skin” value in data set [4] (equimolar creams, 3 hours) is on record as “pronounced selectivity for UV-damaged skin”. Moreover, the figures for the Cytotoxicity in data set [5] (1 mM), in data set [5] (5 mM) and in data set [5] (15 mM) were 17 % of control, 30 % of control and 37 % of control, respectively. The “Levels of cytotoxicity compared to HAL” value in data set [5] is “comparable and acceptable”. In addition, the “Max. PpIX content” value in the data set on WiDr cells [2] (setting [6]) stood at 30 ng/mg protein. For the same molecule, the “Compound concentration” value with WiDr cells [2] (WiDr cells, 4 hours incubation) was determined as 1 mM.
In the case of `NCC(=O)CCC(=O)OCCCCC(=O)O` [Compound 8, 4-carboxybutyl 5-amino-4-oxopentanoate hydrochloride], the “PpIX Mean ± SD” value is recorded as 243 ± 28 pmoles/mg protein in data set [3] (0.3 mM); 219 ± 51 pmoles/mg protein in data set [3] (0.5 mM); 258 ± 62 pmoles/mg protein in data set [3] (1 mM); 234 ± 78 pmoles/mg protein in data set [3] (5 mM); 213 ± 64 pmoles/mg protein in data set [3] (15 mM). Moreover, the figures for the Cytotoxicity in data set [5] (1 mM), in data set [5] (5 mM) and in data set [5] (15 mM) were 18 % of control, 26 % of control and 38 % of control, respectively. Moreover, in data set [5], the “Levels of cytotoxicity compared to HAL” value was “comparable and acceptable”.
Regarding `NCC(=O)CCC(=O)OCCCCCC(=O)O` [Compound 9, 5-carboxypentyl 5-amino-4-oxopentanoate hydrochloride], the “Dark toxicity (cell toxicity in the absence of light)” value in the data set on WiDr cells [1] is given as “no cell toxicity was observed”. Also, in the data set with WiDr cells [2], the “Compound concentration” value was 1 mM and the “Max. PpIX content” value is 40 ng/mg protein.
For the molecule `NCC(=O)CCC(=O)OCCCCCCCC(=O)O` [Compound 10, 7-carboxyheptyl 5-amino-4-oxopentanoate hydrochloride], the “Dark toxicity (cell toxicity in the absence of light)” value in the data set with WiDr cells [1] is “no cell toxicity was observed”. Further, in the data set on WiDr cells [2], the “Compound concentration” value came to 1 mM and the “Max. PpIX content” value is 55* ng/mg protein.
On to `NCC(=O)CCC(=O)OCCCCCCCCCC(=O)O` [Compound 12, 9-carboxynonyl 5-amino-4-oxopentanoate hydrochloride], for which the “Dark toxicity (cell toxicity in the absence of light)” value in the data set with WiDr cells [1] is “no cell toxicity was observed”. Further, the “Max. PpIX content” value with WiDr cells [2] (setting [6]) is 90* ng/mg protein. Moreover, the “Compound concentration” value in the data set with WiDr cells [2] (WiDr cells, 4 hours incubation) is recorded as 0.05 mM.
`NCC(=O)CCC(=O)OCCCCCCCCCCCC(=O)O` [Compound 14, 11-carboxyundecyl 5-amino-4-oxopentanoate hydrochloride]: the “Dark toxicity (cell toxicity in the absence of light)” value with WiDr cells [1] is given as “no cell toxicity was observed”. For the same molecule, in the data set on WiDr cells [2], the “Compound concentration” value is 0.1 mM and the “Max. PpIX content” value is listed as 65* ng/mg protein.
On to `Cl.NCC(=O)CCC(=O)OCCCCCCCCCCCCCCCC(=O)O` [Compound 15, 15-carboxypentadecyl 5-amino-4-oxopentanoate hydrochloride], for which the “Concentrations at which compound was toxic (dark toxicity)” value in the data set on WiDr cells [1] (4 hours in the dark) is on record as “above 0.1 mM”. Moreover, the “Compound concentration” value in the data set on WiDr cells [2] is reported as 0.1 mM. Also, the “Max. PpIX content” value in the data set with WiDr cells [2] (setting [6]) amounted to 25 ng/mg protein.
For the molecule `CCCCCCOC(=O)CCC(=O)CN.Cl` [HAL, 5-ALA hexyl ester hydrochloride, reference compound], the “Dark toxicity (cell toxicity in the absence of light)” value in the data set with WiDr cells [1] was “weak cell toxicity”. Besides, the “Minimum cell survival rate” value with WiDr cells [1] (range of 0.3 to 1 mM, 4 hours in the dark) is recorded as 85%. Further, the Cytotoxicity in data set [5] (0.8 mM) is 15 % of control. Moreover, the “Max. PpIX content” value in the data set with WiDr cells [2] (setting [6]) is 94** ng/mg protein. The “Compound concentration” value in the data set on WiDr cells [2] (WiDr cells, 4 hours incubation) was 0.1 mM.

(Values after patent publication US9249086B2, “Carboxylic acid ALA esters” (Photocure ASA, priority 2012, dated 2016).)
